Assay results as given in patent US6818407B2, “Anti-endotoxic antimicrobial cationic peptides and methods of use therfor” (priority 1998, dated 2004).
Marks after values point to notes of the source that are not given here.

Legend:
[1] = Lethal endotoxemia in galactosamine-sensitized mice; assay type: in vivo, CD-1 mice; details: peptide 200 μg intraperitoneal within 10 min of 10 μg LPS; 24 hours post injection; 5 mice per group; no peptide 100
Protocol: To confirm this in vivo, endotoxic shock was induced by intraperitoneal injection of 10 μg of E.coli 0111:B4 LPS in phosphate-buffered saline (PBS; pH 7.2) into galactosamine-sensitized 8- to 10- week old female CD-1 mice (5 per group). In experiments involving peptides, 200 μg in 100 μl of sterile water was injected at separate intraperitoneal sites within 10 min of LPS injection. Survival was monitored at 24 hours post injection.

[2] = test system: S. epidermis; experiment: MIC, broth microdilution assay in polypropylene microtiter trays; assay type: cell-based; details: average of three separate experiments
Summary of the method: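 MIC values record the lowest peptide concentration at which turbidity (OD) remained unchanged throughout the assigned period.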

[3] = test system: RAW 264.7; experiment: Inhibition of LPS-induced TNF production by RAW 264.7 macrophage cell line; assay type: cell-based, murine; details: E. coli LPS 100 ng/ml, peptide 20 μg/ml, 6 hr; FIG. 2
Protocol: (§1) LPS (endotoxin) binding was examined by the dansyl polymyxin binding assay. All peptides bound to LPS (FIG. 1). The anti-endotoxic activity of the peptides was tested in the murine cell line RAW 264.7 which was obtained from the ATCC (ATCC #TIB-71), (Rockville, Md.). TNF induction experiments with LPS were performed as described by Kelly et al (Infect. Immun., 59:4491-6, 1991). Briefly, Dulbecco's modified Eagle medium was aspirated from RAW 264.7 cells grown overnight in 24-well tissue culture plates after seeding with 10^6 cells per ml per well and replaced with fresh medium. LPS at a final concentration of 100 ng/ml, was incubated with the cells for 6 hr. at 37° C. in 5% CO2 prior to assaying for cytokine production. At the same time as LPS addition, cationic peptides were added at a final concentration of 20 μg/ml. All assays were performed three times with similar results.
(§2) TNF was measured in cell culture supernatants and mouse serum on the basis of cytoxicity for L929 fibroblast cells. […] TNF activity was expressed in units as the reciprocal of the dilution of TNF that caused 50% cytotoxicity of L929 cells, as computed using the ELISA+program (Meddata Inc, New York, N.Y.). For the current study, one unit of TNF corresponded to 62.5 pg/ml of recombinant murine TNF (Genzyme Corp.) IL-6 production was measured by ELISA with specific antibody.

[4] = test system: RAW 264.7; experiment: Suppression of LPS-induced IL-6 production by RAW 264.7 macrophage cell line; assay type: cell-based, murine; details: LPS 100 ng/ml, peptide 20 μg/ml, 6 hr, ELISA, FIG. 3
Protocol: as §1, §2

[5] = test system: Pseudomonas aeruginosa PAO; experiment: Chronic Pseudomonas aeruginosa lung infection in rats, aerosol treatment; assay type: in vivo; details: lungs, quantitative culture; aerosol 10 ml of 5 mg/ml once daily for three days; untreated control 1.2 × 10^6
Protocol: Fifteen animals were utilized in these experiments (5 animals in each of three groups). All animals were inoculated intratracheal with 10^4 Pseudomonas aeruginosa PAO in agar beads. Three days following inoculation, rats were exposed to aerosol preparations from and Aero-Tech II nebulizer (CIS-US, Bedford, Mass.). The nebulizer was operated at 45 psi, with a flow rate of 10 L/min and contained 10 ml of the preparation to be aerosolized. The 10 ml volume was dispensed in 25-30 minutes. Animals were treated once daily for three days; control animals received daily exposure to 10 mls of 10 mM sodium citrate (pH 7.0); one treatment group received daily exposure to 10 mls of 10 mM sodium citrate (pH 7.0) containing 5 mg/ml of CM3; one treatment group received daily exposure to 10 mls of 10 mM sodium citrate (pH 7.0) containing 5 mg/ml of Cpα2. Animals were sacrificed on day 3, at one hour following the last exposure. The lungs of the treatment and control animals were removed for quantitative culture.

[6] = test system: P. aeruginosa efflux mutant (Nal B, H744); experiment: microbe, parasite or virus in culture; assay type: cell-based
[7] = test system: P. aeruginosa gyrase mutant (Nal A, H374); assay type: cell-based
Protocol: The biological activity of the peptides can be determined by standard methods known to those of skill in the art, such as Aminimal inhibitory concentration (MIC)≅ assay described in the present examples, whereby the lowest concentration at which no change in OD is observed for a given period of time is recorded as MIC. Alternatively, Afractional inhibitory concentration (FIC)≅ is also useful for determination of synergy between the peptides of the invention, or the peptides in combination with known antibiotics. FICs are performed by checkerboard titrations of peptides in one dimension of a microtiter plate, and of antibiotics in the other dimension, for example. The FIC is calculated by looking at the impact of one antibiotic on the MIC of the other and vice versa. […] Preferably, an FIC of less than 0.5 is obtained for synergism. As used herein, FIC can be determined as follows: [formula]
To test whether the peptides of the invention synergize with various antibiotics, the following method was employed. Fractional Inhibitory Concentration (FIC) was used to determine synergy of peptides combined with antibiotics (e.g., carbenicillin/ciprofloxacin) against Pseudomonas aeruginosa. The following methodology was followed:
(1) Determination of MIC of cationic peptides (MIC A):
100 μl Mueller Hinton broth (MHB) was added per well
12.5 μl of 10× test concentration peptide was added per well to get final peptide concentration of e.g., 128, 64, 32, . . . 0.025 μg/ml from row 1 to 11;
10 μl of 10^−4 dilution of overnight bacterial culture was added per well.
(2) Determination of MIC of Carbenicillin/Ciprofloxacin (MIC B):
100 μl MHB was added per well;
100 μl of 2× test concentration of antibiotic was added in the first well of the row, and doubling dilutions performed across the plate from column 1 to 11;
(3) Determination of MIC of antibiotics (B) when combined with peptides at concentration A:
100 μl Carbenicillin (512 μg/ml) or Ciprofloxacin (8 μg/ml) was added in each well of column 1; doubling dilutions were performed across the plate;
100 μl of the peptide was added in all wells of row 1, mixed, and 100 μl withdrawn and added to row 2, etc., creating a checkerboard titration.
10 μl of 10^−4 dilution of overnight culture was added per well;
plates were incubated at 37EC for 18-24 hours. Combination MIC values A and B were taken as the lowest concentration of drug that reduced bacterial growth by more than 50% in any given column.
(4) FIC index=FICA+FICB=(A)/MIC A+(B)/MIC B. An FIC index of approximately 0.5 or less indicates synergy; 1.0 reflects additivity; and >1.0 indicates antagonism.

Row | SMILES | Mortality (%) [1] | MIC S. epidermis [2] | Inhibition of TNF production (neutralization of endotoxin) [3] | Suppression of IL-6 production [4] | Mean Colony Forming Units +/− S.D. [5] | (B) MIC of Nal when combined with peptide ([6]; nalidixic acid with peptide at concentration (A), efflux mutant Nal B, H744, unit from method) | FIC index ([6]; peptide + nalidixic acid, efflux mutant Nal B, H744) | MIC A MIC of Peptides ([6]; peptide alone, P. aeruginosa efflux mutant Nal B, H744 (Table 6)) | (A) Peptide doses together with Nal ([6]; peptide concentration in combination with nalidixic acid, efflux mutant Nal B, H744) | (B) MIC of Nal when combined with peptide ([7]; nalidixic acid with peptide at concentration (A), Nal A, unit from method) | FIC index ([7]; peptide + nalidixic acid, Nal A) | MIC A MIC of Peptides ([7]; peptide alone, P. aeruginosa gyrase mutant Nal A) | (A) Peptide doses together with Nal ([7]; peptide concentration in combination with nalidixic acid, Nal A) | Suppression of IL-6 production ([4]; listed as Cpα2)
1 | CC[C@H](C)[C@H](NC(=O)CNC(=O)[C@@H](NC(=O)[C@H](CCCCN)NC(=O)[C@H](CCCCN)NC(=O)[C@H](Cc1ccccc1)NC(=O)[C@H](CC(C)C)NC(=O)[C@H](CCCCN)NC(=O)[C@H](Cc1c[nH]c2ccccc12)NC(=O)[C@@H](N)CCCCN)[C@@H](C)CC)C(=O)NCC(=O)N[C@@H](C)C(=O)N[C@H](C(=O)N[C@@H](CC(C)C)C(=O)N[C@@H](CCCCN)C(=O)N[C@H](C(=O)N[C@@H](CC(C)C)C(=O)N[C@@H](CCCCN)C(=O)N[C@H](C(=O)N[C@@H](CC(C)C)C(=O)N[C@H](C(=O)N[C@H](C(=O)NCC(=O)N[C@@H](CC(C)C)C(=O)N1CCC[C@H]1C(=O)N[C@@H](C)C(=O)N[C@@H](CC(C)C)C(=O)N[C@@H](CCCCN)C(=O)N[C@@H](CC(C)C)C(=O)N[C@H](C(=O)N[C@@H](CC(C)C)C(=O)N[C@@H](CCCCN)C(=O)O)[C@@H](C)O)[C@@H](C)O)[C@@H](C)O)C(C)C)C(C)C)C(C)C [CM4] | 80% | 4 µg/mL | clearly better than others |  |  |  |  |  |  |  |  |  |  | 
2 | CC[C@H](C)[C@H](NC(=O)CNC(=O)[C@@H](NC(=O)[C@H](CCCCN)NC(=O)[C@H](CCCCN)NC(=O)[C@H](Cc1ccccc1)NC(=O)[C@H](CC(C)C)NC(=O)[C@H](CCCCN)NC(=O)[C@H](Cc1c[nH]c2ccccc12)NC(=O)[C@H](CC(C)C)NC(=O)[C@@H](N)CCCCN)[C@@H](C)CC)C(=O)NCC(=O)N[C@@H](C)C(=O)N[C@H](C(=O)N[C@@H](CC(C)C)C(=O)N[C@@H](CCCCN)C(=O)N[C@H](C(=O)N[C@@H](CC(C)C)C(=O)N[C@@H](CCCCN)C(=O)N[C@H](C(=O)N[C@@H](CC(C)C)C(=O)N[C@H](C(=O)N[C@H](C(=O)NCC(=O)N[C@@H](CC(C)C)C(=O)N1CCC[C@H]1C(=O)N[C@@H](C)C(=O)N[C@@H](CC(C)C)C(=O)N[C@@H](CCCCN)C(=O)N[C@@H](CC(C)C)C(=O)N[C@H](C(=O)N[C@@H](CC(C)C)C(=O)N[C@@H](CCCCN)C(=O)O)[C@@H](C)O)[C@@H](C)O)[C@@H](C)O)C(C)C)C(C)C)C(C)C [CM7] | 100% | 4 µg/mL |  | clearly superior in their ability to suppress IL-6 production |  |  |  |  |  |  |  |  |  | 
3 | CC[C@H](C)[C@H](NC(=O)CNC(=O)[C@@H](NC(=O)[C@H](CCCCN)NC(=O)[C@H](CCCCN)NC(=O)[C@@H](NC(=O)[C@H](Cc1ccccc1)NC(=O)[C@H](CCCCN)NC(=O)[C@H](CCCCN)NC(=O)[C@H](Cc1c[nH]c2ccccc12)NC(=O)[C@@H](N)CCCCN)[C@@H](C)CC)[C@@H](C)CC)C(=O)NCC(=O)N[C@@H](C)C(=O)N[C@H](C(=O)N[C@@H](CC(C)C)C(=O)N[C@@H](CCCCN)C(=O)N[C@H](C(=O)N[C@@H](CC(C)C)C(=O)N[C@H](C(=O)N[C@H](C(=O)NCC(=O)N[C@@H](CC(C)C)C(=O)N1CCC[C@H]1C(=O)N[C@@H](C)C(=O)N[C@@H](CC(C)C)C(=O)N[C@@H](CCCCN)C(=O)N[C@@H](CC(C)C)C(=O)N[C@H](C(=O)N[C@@H](CCCCN)C(=O)N[C@@H](CCCCN)C(=O)O)[C@@H](C)O)[C@@H](C)O)[C@@H](C)O)C(C)C)C(C)C [CPα2] |  |  | clearly better than others | clearly superior in their ability to suppress IL-6 production | 6.8 × 10^4 +/− 3.6 × 10^4* CFU | 800 µg/mL | 0.63 | 4 µg/mL | 0.5 µg/mL | 800 µg/mL | 0.50 | 4 µg/mL | 1 µg/mL | superior in their ability to suppress IL-6 production
